Measured values as given in patent US10576062B2, “Carbamoyloxymethyl triazole cyclohexyl acids as LPA antagonists” (Bristol-Myers Squibb Company, priority 2016, dated 2020).

The compounds below were run against T1, human LPA1 (Homo sapiens, UniProt Q92633) (assay: LPA1 functional antagonist assay (LPA-induced calcium flux)). Conditions: read-out: hLPA1 IC50.
T1 construct: expressed in transfected cells; host or cells: Chinese hamster ovary (CHO) cells
Assay type: cell-based
Method in brief: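 CHO cells overexpressing human LPA1, loaded with calcium dye 30 min at 37° C, were preincubated 20 min at room temperature with compound (0.08 nM–5 μM, 0.5% DMSO) in HBSS/20 mM HEPES/0.1% fatty acid-free BSA.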

T1 sequence (Q92633 whole entry): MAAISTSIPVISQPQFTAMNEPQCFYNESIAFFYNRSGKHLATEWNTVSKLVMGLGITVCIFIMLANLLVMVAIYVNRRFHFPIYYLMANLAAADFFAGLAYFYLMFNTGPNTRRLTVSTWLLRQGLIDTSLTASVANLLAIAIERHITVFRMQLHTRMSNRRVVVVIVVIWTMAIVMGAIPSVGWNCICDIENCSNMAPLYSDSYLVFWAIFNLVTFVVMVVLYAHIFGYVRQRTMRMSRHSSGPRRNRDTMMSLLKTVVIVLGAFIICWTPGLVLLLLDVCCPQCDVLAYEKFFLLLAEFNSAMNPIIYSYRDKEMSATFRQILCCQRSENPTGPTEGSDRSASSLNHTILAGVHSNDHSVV

First: Cc1nc(-c2nnn(C)c2COC(=O)N(C)CC2CCOCC2)ccc1O[C@H]1CCC[C@H](C(=O)O)C1 [Example 117, (1S,3S)-3-((2-methyl-6-(1-methyl-5-(((methyl((tetrahydro-2H-pyran-4-yl)methyl)carbamoyl)oxy)methyl)-1H-1,2,3-triazol-4-yl)pyridin-3-yl)oxy)cyclohexane-1-carboxylic acid]
Second: Cc1nc(-c2nnn(C)c2COC(=O)N(C)CC2CCOC2)ccc1O[C@H]1CCC[C@H](C(=O)O)C1 (stereo partly drawn) [Example 126, (1S,3S)-3-((2-methyl-6-(1-methyl-5-(((methyl((tetrahydrofuran-3-yl)methyl)carbamoyl)oxy)methyl)-1H-1,2,3-triazol-4-yl)pyridin-3-yl)oxy)cyclohexane-1-carboxylic acid]
The IC50 of the first is 20-fold lower: 17 nM for the first, 346 nM for the second. The first is the more potent here.

Going from `Cc1nc(-c2nnn(C)c2COC(=O)N(C)Cc2ccccn2)ccc1O[C@H]1CCC[C@H](C(=O)O)C1` [Example 118, (1S,3S)-3-((2-methyl-6-(1-methyl-5-(((methyl(pyridin-2-ylmethyl)carbamoyl)oxy)methyl)-1H-1,2,3-triazol-4-yl)pyridin-3-yl)oxy)cyclohexane-1-carboxylic acid] to `Cc1nc(-c2nnn(C)c2COC(=O)N(C)Cc2cnccn2)ccc1O[C@H]1CCC[C@H](C(=O)O)C1` [Example 123, (1S,3S)-3-((2-methyl-6-(1-methyl-5-(((methyl(pyrazin-2-ylmethyl)carbamoyl)oxy)methyl)-1H-1,2,3-triazol-4-yl)pyridin-3-yl)oxy)cyclohexane-1-carboxylic acid], the IC50 rises from 211 nM to 618 nM (2.9-fold). The first is the more potent here.

`Cc1nc(-c2nnn(C)c2COC(=O)N(C)Cc2cccnc2)ccc1O[C@H]1CCC[C@H](C(=O)O)C1` [Example 120, (1S,3S)-3-((2-methyl-6-(1-methyl-5-(((methyl(pyridin-3-ylmethyl)carbamoyl)oxy)methyl)-1H-1,2,3-triazol-4-yl)pyridin-3-yl)oxy)cyclohexane-1-carboxylic acid] and `Cc1nc(-c2nnn(C)c2COC(=O)N(C)Cc2ccncc2)ccc1O[C@H]1CCC[C@H](C(=O)O)C1` [Example 122, (1S,3S)-3-((2-methyl-6-(1-methyl-5-(((methyl(pyridin-4-ylmethyl)carbamoyl)oxy)methyl)-1H-1,2,3-triazol-4-yl)pyridin-3-yl)oxy)cyclohexane-1-carboxylic acid] are within 1.5-fold of each other in IC50: 809 nM for the first, 873 nM for the second.

`Cc1nc(-c2nnn(C)c2COC(=O)N(C)Cc2ncccn2)ccc1O[C@H]1CCC[C@H](C(=O)O)C1` [Example 121, (1S,3S)-3-((2-methyl-6-(1-methyl-5-(((methyl(pyrimidin-2-ylmethyl)carbamoyl)oxy)methyl)-1H-1,2,3-triazol-4-yl)pyridin-3-yl)oxy)cyclohexane-1-carboxylic acid] and `Cc1nc(-c2nnn(C)c2COC(=O)N(C)Cc2ccnn2C)ccc1O[C@H]1CCC[C@H](C(=O)O)C1` [Example 124, (1S,3S)-3-((2-methyl-6-(1-methyl-5-(((methyl((1-methyl-1H-pyrazol-5-yl)methyl)carbamoyl)oxy)methyl)-1H-1,2,3-triazol-4-yl)pyridin-3-yl)oxy)cyclohexane-1-carboxylic acid] are within 1.5-fold of each other in IC50: 1090 nM for the first, 982 nM for the second.

Going from `Cc1nc(-c2nnn(C)c2COC(=O)N(C)CC2COCCN2)ccc1O[C@H]1CCC[C@H](C(=O)O)C1` (stereo partly drawn) [Example 125, (1S,3S)-3-((2-methyl-6-(1-methyl-5-(((methyl(morpholin-3-ylmethyl)carbamoyl)oxy)methyl)-1H-1,2,3-triazol-4-yl)pyridin-3-yl)oxy)cyclohexane-1-carboxylic acid] to `Cc1nc(-c2nnn(C)c2COC(=O)N(C)C2CCC2)ccc1O[C@H]1CCC[C@H](C(=O)O)C1` [Example 136, (1S,3S)-3-((6-(5-(((cyclobutyl(methyl)carbamoyl)oxy)methyl)-1-methyl-1H-1,2,3-triazol-4-yl)-2-methylpyridin-3-yl)oxy)cyclohexane-1-carboxylic acid], the IC50 falls from 668 nM to 36 nM (19-fold). The second is the more potent here.

First: CCCCN(CC)C(=O)OCc1c(-c2ccc(O[C@H]3CCC[C@H](C(=O)O)C3)c(C)n2)nnn1C [Example 127, (1S,3S)-3-((6-(5-(((butyl(ethyl)carbamoyl)oxy)methyl)-1-methyl-1H-1,2,3-triazol-4-yl)-2-methylpyridin-3-yl)oxy)cyclohexane-1-carboxylic acid]
Second: CCCN(CC)C(=O)OCc1c(-c2ccc(O[C@H]3CCC[C@H](C(=O)O)C3)c(C)n2)nnn1C [Example 128, (1S,3S)-3-((6-(5-(((ethyl(propyl)carbamoyl)oxy)methyl)-1-methyl-1H-1,2,3-triazol-4-yl)-2-methylpyridin-3-yl)oxy)cyclohexane-1-carboxylic acid]
The IC50 of the first is 4.8-fold lower: 33 nM for the first, 158 nM for the second. The first is the more potent here.

`Cc1nc(-c2nnn(C)c2COC(=O)N(C)C2(C(C)C)CC2)ccc1O[C@H]1CCC[C@H](C(=O)O)C1` [Example 129, (1S,3S)-3-((6-(5-((((1-isopropylcyclopropyl)(methyl)carbamoyl)oxy)methyl)-1-methyl-1H-1,2,3-triazol-4-yl)-2-methylpyridin-3-yl)oxy)cyclohexane-1-carboxylic acid] and `Cc1nc(-c2nnn(C)c2COC(=O)N(C)C2(CC(C)C)CC2)ccc1O[C@H]1CCC[C@H](C(=O)O)C1` [Example 130, (1S,3S)-3-((6-(5-((((1-isobutylcyclopropyl)(methyl)carbamoyl)oxy)methyl)-1-methyl-1H-1,2,3-triazol-4-yl)-2-methylpyridin-3-yl)oxy)cyclohexane-1-carboxylic acid] are within 1.5-fold of each other in IC50: 352 nM for the first, 243 nM for the second.

`CCC1(N(C)C(=O)OCc2c(-c3ccc(O[C@H]4CCC[C@H](C(=O)O)C4)c(C)n3)nnn2C)CC1` [Example 131, (1S,3S)-3-((6-(5-((((1-ethylcyclopropyl)(methyl)carbamoyl)oxy)methyl)-1-methyl-1H-1,2,3-triazol-4-yl)-2-methylpyridin-3-yl)oxy)cyclohexane-1-carboxylic acid] and `CCC1(N(C)C(=O)OCc2c(-c3ccc(O[C@H]4CCC[C@H](C(=O)O)C4)c(C)n3)nnn2C)CCC1` [Example 133, (1S,3S)-3-((6-(5-((((1-ethylcyclobutyl)(methyl)carbamoyl)oxy)methyl)-1-methyl-1H-1,2,3-triazol-4-yl)-2-methylpyridin-3-yl)oxy)cyclohexane-1-carboxylic acid] are within 1.5-fold of each other in IC50: 187 nM for the first, 174 nM for the second.

First: CCCC1(N(C)C(=O)OCc2c(-c3ccc(O[C@H]4CCC[C@H](C(=O)O)C4)c(C)n3)nnn2C)CCC1 [Example 132, (1S,3S)-3-((2-methyl-6-(1-methyl-5-(((methyl(1-propylcyclobutyl)carbamoyl)oxy)methyl)-1H-1,2,3-triazol-4-yl)pyridin-3-yl)oxy)cyclohexane-1-carboxylic acid]
Second: Cc1nc(-c2nnn(C)c2COC(=O)N2CC3(CCC3)C2)ccc1O[C@H]1CCC[C@H](C(=O)O)C1 [Example 134, (1S,3S)-3-((6-(5-(((2-azaspiro[3.3]heptane-2-carbonyl)oxy)methyl)-1-methyl-1H-1,2,3-triazol-4-yl)-2-methylpyridin-3-yl)oxy)cyclohexane-1-carboxylic acid]
The IC50 of the first is 2.4-fold higher: 180 nM for the first, 76 nM for the second.

Work on `Cc1nc(-c2nnn(C)c2COC(=O)N2CCC3(CCC3)C2)ccc1O[C@H]1CCC[C@H](C(=O)O)C1` [Example 135, (1S,3S)-3-((6-(5-(((6-azaspiro[3.4]octane-6-carbonyl)oxy)methyl)-1-methyl-1H-1,2,3-triazol-4-yl)-2-methylpyridin-3-yl)oxy)cyclohexane-1-carboxylic acid] yielded an IC50 of 47 nM.
